System: KRAS-mutant PDC complex spheroid viability
Assay: Anticancer human tumor 186277-243-T-J2-PDC patient-derived colon adenocarcinoma cell line growth inhibition [KRAS2]
Settings: for IC50: curve of first compound; for viability, T/C: stronger effect = lower value
Outline: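 KRAS-mutant tumor cells were grown as spheroids with HUVEC endothelial cells and human MSCs as stroma. Targeted agents were tested alone and with KRAS pathway inhibitors. Doses started at or near clinical Cmax, or 10 microM, descending half-log.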
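For viability, T/C in this document: viability read after seven days of compound exposure; 100% = DMSO vehicle-treated spheroids so lower means less viable.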

**Q.** With `CC(=O)Nc1cccc(-n2c(=O)n(C3CC3)c(=O)c3c(Nc4ccc(I)cc4F)n(C)c(=O)c(C)c32)c1` + C=CC(=O)N1CCN(c2nc(OCC3CCCN3C)nc3c2CCN(c2cccc4cccc(C)c24)C3)CC1CC#N as the molecule, how does the IC50 (second compound 0.0316 µM) read?
**A.** The IC50 was 749 pM.

**Q.** What about the IC50 (second compound 0.1 µM) of the same molecule?
**A.** The IC50 was 668 pM.

**Q.** What about the IC50 (second compound 0.316 µM) of the same molecule?
**A.** The IC50 was 670 pM.

**Q.** And the IC50 (second compound 1 µM)?
**A.** Its IC50 is 483 pM.

**Q.** What about the IC50 (second compound 3.16 µM) of the same molecule?
**A.** Its IC50 is under 100 pM.

**Q.** What about the viability, T/C (second compound 0.0316 µM, first compound 0.0001 µM) of the same molecule?
**A.** Its viability, T/C is 98.2%.

**Q.** What about the viability, T/C (second compound 0.0316 µM, first compound 0.000316 µM) of the same molecule?
**A.** Its viability, T/C is 115%.

**Q.** What about the viability, T/C (second compound 0.0316 µM, first compound 0.001 µM) of the same molecule?
**A.** Its viability, T/C is 30.9%.

**Q.** And the viability, T/C (second compound 0.0316 µM, first compound 0.00316 µM)?
**A.** Its viability, T/C is 7.61%.

**Q.** And the viability, T/C (second compound 0.0316 µM, first compound 0.01 µM)?
**A.** The viability, T/C was 2.46%.

**Q.** And the viability, T/C (second compound 0.0316 µM, first compound 0.0316 µM)?
**A.** The viability, T/C was 1.21%.

**Q.** And the viability, T/C (second compound 0.1 µM, first compound 0.0001 µM)?
**A.** Its viability, T/C is 88.8%.

**Q.** And the viability, T/C (second compound 0.1 µM, first compound 0.000316 µM)?
**A.** The viability, T/C was 103%.

**Q.** What about the viability, T/C (second compound 0.1 µM, first compound 0.001 µM) of the same molecule?
**A.** Its viability, T/C is 25.1%.

**Q.** And the viability, T/C (second compound 0.1 µM, first compound 0.00316 µM)?
**A.** Its viability, T/C is 6.76%.

**Q.** What about the viability, T/C (second compound 0.1 µM, first compound 0.01 µM) of the same molecule?
**A.** Its viability, T/C is 2.36%.

**Q.** What about the viability, T/C (second compound 0.1 µM, first compound 0.0316 µM) of the same molecule?
**A.** The viability, T/C was 1.26%.

**Q.** What about the viability, T/C (second compound 0.316 µM, first compound 0.0001 µM) of the same molecule?
**A.** The viability, T/C was 103%.

**Q.** What about the viability, T/C (second compound 0.316 µM, first compound 0.000316 µM) of the same molecule?
**A.** The viability, T/C was 99%.

**Q.** And the viability, T/C (second compound 0.316 µM, first compound 0.001 µM)?
**A.** The viability, T/C was 23.8%.

**Q.** What about the viability, T/C (second compound 0.316 µM, first compound 0.00316 µM) of the same molecule?
**A.** Its viability, T/C is 5.26%.

**Q.** What about the viability, T/C (second compound 0.316 µM, first compound 0.01 µM) of the same molecule?
**A.** Its viability, T/C is 2.18%.

**Q.** And the viability, T/C (second compound 0.316 µM, first compound 0.0316 µM)?
**A.** Its viability, T/C is 1.26%.

**Q.** And the viability, T/C (second compound 1 µM, first compound 0.0001 µM)?
**A.** Its viability, T/C is 105%.

**Q.** What about the viability, T/C (second compound 1 µM, first compound 0.000316 µM) of the same molecule?
**A.** Its viability, T/C is 74%.

**Q.** And the viability, T/C (second compound 1 µM, first compound 0.001 µM)?
**A.** Its viability, T/C is 8.66%.

**Q.** And the viability, T/C (second compound 1 µM, first compound 0.00316 µM)?
**A.** The viability, T/C was 2.88%.

**Q.** And the viability, T/C (second compound 1 µM, first compound 0.01 µM)?
**A.** The viability, T/C was 1.12%.

**Q.** What about the viability, T/C (second compound 1 µM, first compound 0.0316 µM) of the same molecule?
**A.** Its viability, T/C is 0.75%.

**Q.** And the viability, T/C (second compound 3.16 µM, first compound 0.0001 µM)?
**A.** Its viability, T/C is 0.32%.

**Q.** And the viability, T/C (second compound 3.16 µM, first compound 0.000316 µM)?
**A.** Its viability, T/C is 0.18%.

**Q.** And the viability, T/C (second compound 3.16 µM, first compound 0.001 µM)?
**A.** The viability, T/C was 0.13%.

**Q.** What about the viability, T/C (second compound 3.16 µM, first compound 0.00316 µM) of the same molecule?
**A.** Its viability, T/C is 0.12%.

**Q.** And the viability, T/C (second compound 3.16 µM, first compound 0.01 µM)?
**A.** Its viability, T/C is 0.11%.

**Q.** And the viability, T/C (second compound 3.16 µM, first compound 0.0316 µM)?
**A.** The viability, T/C was 0.19%.
